Biological target: T1, O-GlcNAc transferase (OGT) (Homo sapiens, UniProt O15294)
T1 sequence (O15294 323-1041): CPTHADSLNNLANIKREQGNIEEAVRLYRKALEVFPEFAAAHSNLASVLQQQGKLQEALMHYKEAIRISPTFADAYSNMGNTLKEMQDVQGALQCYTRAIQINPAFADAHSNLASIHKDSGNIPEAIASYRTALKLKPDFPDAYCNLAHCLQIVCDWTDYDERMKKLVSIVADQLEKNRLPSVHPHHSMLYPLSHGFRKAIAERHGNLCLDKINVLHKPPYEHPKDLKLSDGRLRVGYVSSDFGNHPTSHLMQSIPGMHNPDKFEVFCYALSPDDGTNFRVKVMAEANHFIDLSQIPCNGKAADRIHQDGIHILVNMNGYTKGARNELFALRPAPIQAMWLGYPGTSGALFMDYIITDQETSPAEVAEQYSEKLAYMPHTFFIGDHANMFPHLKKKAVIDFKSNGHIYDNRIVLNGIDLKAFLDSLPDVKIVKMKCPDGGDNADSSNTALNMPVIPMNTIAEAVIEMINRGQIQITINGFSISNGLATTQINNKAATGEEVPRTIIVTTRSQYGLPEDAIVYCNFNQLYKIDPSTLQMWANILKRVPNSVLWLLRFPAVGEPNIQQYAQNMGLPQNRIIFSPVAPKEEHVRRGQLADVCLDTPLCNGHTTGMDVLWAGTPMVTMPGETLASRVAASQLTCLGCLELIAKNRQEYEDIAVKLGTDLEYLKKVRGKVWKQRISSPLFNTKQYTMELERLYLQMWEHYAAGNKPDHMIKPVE
Experiment: microscale thermophoresis
Assay type: binding

SMILES	Kd
CC(=O)N[C@H]1[C@@H](OP(=O)(O)OP(=O)(O)OC[C@H]2O[C@@H](n3ccc(=O)[nH]c3=O)[C@H](O)[C@@H]2O)O[C@H](CO)[C@@H](O)[C@@H]1O [UDP-GlcNAc]	confirming that the method produced Kds for UDP and UDP-GlcNAc similar to those
O=c1ccn([C@@H]2O[C@H](COP(=O)(O)OP(=O)(O)O)[C@@H](O)[C@H]2O)c(=O)[nH]1 [UDP]	confirming that the method produced Kds for UDP and UDP-GlcNAc similar to those
